Test results published in patent publication US20150004134A1, “TREATMENT OF CANCER WITH HETEROCYCLIC INHIBITORS OF GLUTAMINASE” (Calithera Biosciences, Inc., priority 2012, published 2015).

Each compound was assayed on P493-6 (myc "on") cells (assay: Cell Proliferation Assay). Conditions: P493-6, 72 h, read-out: Cell prolif P493 72 h IC50, P493-6 cells, 72 h.
Type: cell-based
Procedure: P493-6 (myc “on”) cells were maintained in growth media (RPMI-1640, 10% FBS, 2 mM glutamine, 100 units/ml Penicillin and 100 μg/ml streptomycin) at 37° C. with 5% CO2. For compound assay, P493-6 cells were plated in 96-well V-bottom plates on the day of compound addition in 50 μl of growth media at a cell density of 200,000 cells/ml (10,000 cells/well). Compounds were serially diluted in 100% DMSO at 200-times the final concentration. Compounds were diluted 100-fold into growth media and then 50 μl of this mixture was added to cell plates making the final concentration of DMSO 0.5%. Cells were incubated with compound for 72 hrs at 37° C. with 5% CO2 and analyzed for antiproliferative effects either by Cell Titer Glo (Promega) or FACS analysis using the Viacount (Millipore) kit on the Guava instrument.
Compound `O=C(Cc1ccccc1)Nc1ccc(CCCCc2nnc(NC(=O)Cc3cccc(CN4CCCCC4=O)c3)s2)nn1` [Compound 476] has an IC50 of 0.012 µM.
For `O=C(Cc1ccccc1)Nc1ccc(CCCCc2nnc(NC(=O)C(O)c3cccc(Br)c3)s2)nn1` (centres unmarked) [Compound 415], the IC50 was 0.018 µM.
Compound `Nc1ccc(CCCCc2nnc(NC(=O)C(O)c3cccc(Cl)c3)s2)nn1` (centres unmarked) [Compound 411] has an IC50 of 0.74 µM.
`O=C(Cc1cccc(Cl)c1)Nc1ccc(CCCCc2nnc(NC(=O)C(O)c3cccc(Cl)c3)s2)nn1` (centres unmarked) [Compound 448] gave an IC50 of 0.051 µM.
`CC(C)(C)OC(=O)Nc1cccc(CC(=O)Nc2nnc(CCCCc3ccc(NC(=O)Cc4ccccc4)nn3)s2)c1` [Compound 399] showed an IC50 of 0.026 µM.
`Nc1ccc(CCCCc2nnc(NC(=O)Cc3cccc(OC(F)(F)F)c3)s2)nn1` [Compound 584] gave an IC50 of 1.4 µM.
With `COC(C(=O)Nc1nnc(CCCCc2ccc(NC(=O)Cc3cccc(CNC(=O)OC(C)(C)C)c3)nn2)s1)c1ccccc1` (centres unmarked) [Compound 509] the IC50 was 0.009 µM.
Work on `O=C(Cc1ccccc1)NCc1cccc(CC(=O)Nc2nnc(CCCCc3ccc(NC(=O)Cc4ccccc4)nn3)s2)c1` [Compound 435] yielded an IC50 of 0.006 µM.
Compound `CC(=O)N1CCN(Cc2cc(CC(=O)Nc3nnc(CCCCc4ccc(NC(=O)Cc5ccccc5)nn4)s3)ccc2F)CC1` [Compound 528] has an IC50 of 0.044 µM.
`CC(=O)NCCc1cccc(CC(=O)Nc2nnc(CCCCc3ccc(NC(=O)Cc4ccccc4)nn3)s2)c1` [Compound 454] was tested, and the IC50 was 0.13 µM.
`Cc1noc(Cc2cccc(CC(=O)Nc3ccc(CCCCc4nnc(NC(=O)Cc5ccccc5)s4)nn3)c2)n1` [Compound 648, 2-(3-((3-methyl-1,2,4-oxadiazol-5-yl)methyl)phenyl)-N-(6-(4-(5-(2-phenylacetamido)-1,3,4-thiadiazol-2-yl)butyl)pyridazin-3-yl)acetamide] showed an IC50 of 0.011 µM.
With `COc1cccc(CC(=O)Nc2ccc(CCCCc3nnc(NC(=O)C(O)c4cccc(Cl)c4)s3)nn2)c1` (centres unmarked) [Compound 467] the IC50 was 0.047 µM.
With `O=C(Cc1ccccc1)Nc1ccc(CCCCc2nnc(NC(=O)Cc3ccc(F)c(CN4CCNCC4)c3)s2)nn1` [Compound 494] the IC50 was 0.58 µM.
`O=C(Cc1ccccc1)Nc1ccc(CCCCc2nnc(NC(=O)Cc3cccc4c3CNC4)s2)nn1` [Compound 650] was tested, and the IC50 was 0.14 µM.
`CN(C)CC(=O)Nc1ccc(CCCCc2nnc(NC(=O)Cc3cccc(CNC(=O)OC(C)(C)C)c3)s2)nn1` [Compound 478] showed an IC50 of 0.046 µM.
`O=C(Cc1ccccc1)Nc1ccc(CCCCc2nnc(NC(=O)CC3=CN4CCCN=C4S3)s2)nn1` [Compound 511] was tested, and the IC50 was 1.1 µM.
`Cc1ccccc1CC(=O)Nc1nnc(CCCCc2ccc(NC(=O)Cc3ccccc3F)nn2)s1` [Compound 536] gave an IC50 of 0.071 µM.
For `CCCC(=O)OCN(C(=O)Cc1cccc(CNC(=O)OC(C)(C)C)c1)c1nnc(CCCCc2ccc(NC(=O)Cc3ccccc3)nn2)s1` [Compound 552], the IC50 was 0.005 µM.

Same assay, conditions: P493-6, 72 h, read-out: Cell prolif P493 72 h IC50, P493 cells, 72 h
`O=C(OCC(C(=O)Nc1nnc(CCCCc2nnc(NC(=O)C(COC(=O)C3CCNCC3)c3ccccc3)s2)s1)c1ccccc1)C1CCNCC1` (centres unmarked) [Compound 302] was tested, and the IC50 was 0.87 µM.
`O=C(Cc1ccccc1)Nc1ccc(CCCCc2nnc(NC(=O)C(OC(=O)CCN3CCOCC3)c3ccccc3)s2)nn1` (centres unmarked) [Compound 334] was tested, and the IC50 was 0.03 µM.
`CCOc1ccccc1CC(=O)Nc1nnc(CCCCc2nnc(NC(=O)Cc3ccccc3OCC)s2)s1` [Compound 300] was tested, and the IC50 was 0.16 µM.
`O=C(Nc1nnc(CCCCc2nnc(NC(=O)C3Cc4ccccc4O3)s2)s1)C1Cc2ccccc2O1` (centres unmarked) [Compound 51] was tested, and the IC50 was 1.3 µM.
For `O=C(CN1CCOCC1)Nc1nnc(CCSCCc2nnc(NC(=O)CN3CCOCC3)s2)s1` [Compound 12], the IC50 was 36 µM.
`C[C@@H](O)C(=O)Nc1nnc(CCCCc2nnc(NC(=O)Cc3ccccc3)s2)s1` [Compound 322] showed an IC50 of 3 µM.
For `COC(C(=O)Nc1nnc(CCSCCc2nnc(NC(=O)C(OC)c3ccccc3)s2)s1)c1ccccc1` (centres unmarked) [Compound 67], the IC50 was 1.8 µM.
Work on `O=C(OCC(C(=O)Nc1nnc(CCCCc2nnc(NC(=O)C(COC(=O)C3CCN(C(=O)OCc4ccccc4)CC3)c3ccccc3)s2)s1)c1ccccc1)C1CCN(C(=O)OCc2ccccc2)CC1` (centres unmarked) [Compound 301] yielded an IC50 of 0.23 µM.
Compound `CC(C)(C)C(=O)OCN(C(=O)Cc1ccccc1)c1nnc(CCSCCc2nnc(NC(=O)Cc3ccccc3)s2)s1` [Compound 15] has an IC50 of 1.2 µM.
`O=C(Nc1nnc(CCSCCc2nnc(NC(=O)C3CC4CCC3C4)s2)s1)C1CC2CCC1C2` (centres unmarked) [Compound 38] gave an IC50 of 3.2 µM.
`CC(C)(C)OC(=O)Nc1ccc(CC(=O)Nc2nnc(CCSCCc3nnc(NC(=O)Cc4ccc(NC(=O)OC(C)(C)C)cc4)s3)s2)cc1` [Compound 185] showed an IC50 of 0.09 µM.
Compound `O=C(Cc1ccccc1)Nc1nnc(CCSCCc2nnc(NC(=O)[C@@H]3CCCN3C(=O)C(F)(F)F)s2)s1` [Compound 35] has an IC50 of 3.8 µM.
In the case of `COCC(C(=O)Nc1nnc(CCCCc2nnc(NC(=O)C(COC)c3ccccc3)s2)s1)c1ccccc1` (centres unmarked) [Compound 165], the IC50 is reported as 33 µM.
Compound `O=C(CC1CC1)Nc1nnc(CCSCCc2nnc(NC(=O)CC3CC3)s2)s1` [Compound 83] has an IC50 of 1.4 µM.
`COc1cccc(CC(=O)Nc2nnc(CCSCCc3nnc(NC(=O)Cc4cccc(OC)c4)s3)s2)c1` [Compound 156] showed an IC50 of 0.63 µM.
`O=C(Cc1ccccc1)Nc1ccc(CCCCc2nnc(NC(=O)[C@@H](O)c3ccccc3)s2)nn1` [Compound 350] was tested, and the IC50 was 0.029 µM.
Compound `CCC(C)C(=O)Nc1nnc(CCCCc2nnc(NC(=O)C(C)CC)s2)s1` (centres unmarked) [Compound 107] has an IC50 of 1.2 µM.
Compound `O=C(Cc1ccccc1)Nc1nnc(CCCCc2nnc(NC(=O)Cc3ccccc3)o2)o1` [Compound 305] has an IC50 of 102 µM.
In the case of `Nc1nnc(CCCCc2nnc(NC(=O)C(CO)c3ccccc3)s2)s1` (centres unmarked) [Compound 227], the IC50 is reported as 3.3 µM.
`N[C@@H](C(=O)Nc1nnc(CCSCCc2nnc(NC(=O)[C@H](N)c3ccccc3)s2)s1)c1ccccc1` [Compound 47] showed an IC50 of 35 µM.
`O=C(Cn1cccn1)Nc1nnc(CCCCc2nnc(NC(=O)Cn3cccn3)s2)s1` [Compound 60] was tested, and the IC50 was 14 µM.
`COc1ccc(OC)c(CC(=O)Nc2nnc(CCCc3nnc(NC(=O)Cc4cc(OC)ccc4OC)s3)s2)c1` [Compound 265] was tested, and the IC50 was 0.31 µM.
Work on `O=C(Cc1cccs1)Nc1nnc(CCSCCc2nnc(NC(=O)Cc3cccs3)s2)s1` [Compound 116] yielded an IC50 of 0.72 µM.
In the case of `O=C(Cc1ccccc1)Nc1nnc(CCSCCc2nnc(NC(=O)Cc3ccccn3)s2)s1` [Compound 359], the IC50 is reported as 0.91 µM.
`O=C(CN1C(=O)OC[C@H]1c1ccccc1)Nc1nnc(CCSCCc2nnc(NC(=O)CN3C(=O)OC[C@H]3c3ccccc3)s2)s1` [Compound 243] gave an IC50 of 33 µM.
Work on `CCC(C)C(=O)Nc1nnc(CCSCCc2nnc(NC(=O)C(C)CC)s2)s1` (centres unmarked) [Compound 105] yielded an IC50 of 119 µM.
`N[C@@H](CO)C(=O)Nc1nnc(CCCCc2nnc(NC(=O)[C@@H](N)CO)s2)s1` [Compound 140] was tested, and the IC50 was > 50 µM.
`CC(C(=O)Nc1nnc(CCCCc2nnc(NC(=O)C(C)c3ccccc3Cl)s2)s1)c1ccccc1Cl` (centres unmarked) [Compound 274] showed an IC50 of 0.68 µM.
`O=C(Cc1cccc(Br)c1)Nc1nnc(CCSCCc2nnc(NC(=O)Cc3cccc(Br)c3)s2)s1` [Compound 270] showed an IC50 of 0.85 µM.
For `CC(C)CC(=O)Nc1nnc(CCSCCc2nnc(NC(=O)CC(C)C)s2)s1` [Compound 4], the IC50 was > 50 µM.
Work on `O=C(C[C@@H](O)c1ccccc1)Nc1nnc(CCCCc2nnc(NC(=O)C[C@@H](O)c3ccccc3)s2)s1` [Compound 127] yielded an IC50 of 0.45 µM.
In the case of `O=C(Cc1ccccc1CO)Nc1nnc(CCCCc2nnc(NC(=O)Cc3ccccc3CO)s2)s1` [Compound 208], the IC50 is reported as 9 µM.
In the case of `COc1c(F)ccc(CC(=O)Nc2nnc(CCCCc3nnc(NC(=O)Cc4ccccc4)s3)s2)c1F` [Compound 344], the IC50 is reported as 0.088 µM.
In the case of `O=C(Nc1nnc(CCSCCc2nnc(NC(=O)C3CCc4ccccc4C3)s2)s1)C1CCc2ccccc2C1` (centres unmarked) [Compound 37], the IC50 is reported as > 50 µM.
`CC(C)(C)OC(=O)NCc1cccc(CC(=O)Nc2ccc(CCCCc3nnc(NC(=O)Cc4ccccc4)s3)nn2)c1` [Compound 367] showed an IC50 of 0.006 µM.
`CC(C(=O)Nc1nnc(CCSCCc2nnc(NC(=O)C(C)c3ccccc3)s2)s1)c1ccccc1` (centres unmarked) [Compound 19] was tested, and the IC50 was 1.7 µM.
`O=C(Cc1ccccc1Br)Nc1nnc(CCCCc2nnc(NC(=O)Cc3ccccc3Br)s2)s1` [Compound 282] showed an IC50 of 0.37 µM.
In the case of `O=C(Nc1nnc(CCSCCc2nnc(NC(=O)c3ccccc3CO)s2)s1)c1ccccc1CO` [Compound 180], the IC50 is reported as > 50 µM.
With `O=C(Cc1ccccc1)Nc1nnc(CCCCc2nnc(NC(=O)Cc3ccccc3CO)s2)s1` [Compound 333] the IC50 was 1.6 µM.
`NCCC(C(=O)Nc1nnc(CCSCCc2nnc(NC(=O)C(CN)c3ccccc3)s2)s1)c1ccccc1` (centres unmarked) [Compound 214] gave an IC50 of 1.2 µM.
`COc1ccc(C(O)C(=O)Nc2nnc(CCCCc3nnc(NC(=O)C(O)c4ccc(OC)cc4)s3)s2)cc1` (centres unmarked) [Compound 320] was tested, and the IC50 was 0.19 µM.
For `COc1ccc2c(c1)CC(C(=O)Nc1nnc(CCCCc3nnc(NC(=O)C4Cc5cc(OC)ccc5O4)s3)s1)O2` (centres unmarked) [Compound 121], the IC50 was 3.5 µM.
Work on `COc1cccc(C(O)C(=O)Nc2nnc(CCCCc3ccc(NC(=O)Cc4ccccc4)nn3)s2)c1` (centres unmarked) [Compound 317] yielded an IC50 of 0.01 µM.
In the case of `O=C(Cc1cccc(CN2CCNCC2)c1)Nc1nnc(CCCCc2nnc(NC(=O)Cc3cccc(CN4CCNCC4)c3)s2)s1` [Compound 286], the IC50 is reported as 6.4 µM.
For `O=C(Cc1ccsc1)Nc1nnc(CCCCc2nnc(NC(=O)Cc3ccsc3)s2)s1` [Compound 88], the IC50 was 0.12 µM.
Compound `O=C(Nc1nnc(CCCCCc2nnc(NC(=O)C(CO)c3ccccc3)s2)s1)C(CO)c1ccccc1` (centres unmarked) [Compound 30] has an IC50 of 2.5 µM.

Same assay, conditions: read-out: Cell prolif P493 72 h IC50; P493-6 cells, 72 h
In the case of `Nc1nnc(CCCCc2ccc(NC(=O)Cc3cccc(OC(F)(F)F)c3)nn2)s1` [Compound 657, N-(6-(4-(5-amino-1,3,4-thiadiazol-2-yl)butyl)pyridazin-3-yl)-2-(3-(trifluoromethoxy)phenyl)acetamide], the IC50 is reported as 1.5 µM.
